Like-named read-outs stand apart in the source and are kept apart here.
What was measured:
LoVo and RKO cells = assay: Colony formation assay; type: cell-based, human
Method: Detached cells (1 × 10^3 per well) were seeded into six-well plates containing 2 mL of growth medium with 10% FBS and cultured for 24 h. Then, the medium was removed and the cells were treated with various concentrations of SHK. After 24 h, the cells were washed with PBS and supplemented with fresh growth medium. The cells were routinely incubated for about two weeks until colonies were large enough to be visualized. Then, the colonies were stained with 0.1% crystal violet and counted.

MBP-IKKβ (701–745) = target: T1, MBP-IKKβ (701–745) (Homo sapiens, UniProt O14920); assay: SPR affinity assay on immobilized MBP-IKKβ; type: binding
T1 construct: made in house; host or cells: E. coli BL21(DE3)
T1 sequence (O14920 701-745): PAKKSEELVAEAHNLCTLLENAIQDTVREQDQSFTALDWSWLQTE
Method: The sensor surface was activated with a 7 min injection of a mixture comprising 50 mM N-hydroxysuccinimide (NHS) and 200 mM 1-ethyl-3-(3- dimethylaminopropyl) carbodiimide (EDC). Then, 33 μg/mL of IKKβ was injected to reach the target level of 500 RU and the surface was blocked with 1 M ethanolamine, pH 8.5. A series of concentrations of NEMO or SHK were injected into the flow system and analyzed for 90 or 120 s, followed by dissociation for 90 or 600 s. All binding analyses was performed in phosphate-buffered saline (PBS, pH 7.4) with 0.05% (v/v) Tween-20 at 25 °C. Prior to analysis, double reference subtractions were made to eliminate bulk refractive index changes, injection noise, and data drift. The binding affinity was determined by fitting to a Langmuir 1:1 binding model in the Biacore Evaluation software (GE Healthcare).

NEMO/IKKβ complex = target: T2, NEMO/IKKβ complex (Homo sapiens, UniProt O14920+Q9Y6K9); assay: Co-immunoprecipitation of NEMO/IKKβ; details: Co-IP
T2 construct: expressed in transfected cells; host or cells: HEK293T
Method: The pre-cleared cell lysates were incubated with an anti-HA antibody on a rotating platform at 4 °C for 2 h, and then incubated for another 6 h with protein A/G-sepharose beads. The sepharose beads were washed three times with binding buffer, mixed with gel loading buffer and boiled for 5 min. The samples were centrifuged and the supernatants were used for western blot analysis. A specific antibody against the Flag-tag was applied for the detection of proteins.
The IKKβ and NEMO expression vectors were constructed by subcloning the full-length cDNA to pENTER-4T1 expression vector (Flag- or HA-tagged) developed by ViGene Biosciences, as described previously.[25] The 293T cells (1 × 10^6) were plated into 60 mm dishes for 1 day, and then transfected with the relevant plasmids encoding HA-IKKβ and Flag-NEMO using Lipofectamine 2000 transfection reagent (Invitrogen). After transfection, the cells were cultured for another 24 h. Subsequently, the transfected cells were trypsinized and seeded into 60 mm dishes, followed by culturing with fresh medium containing the indicated doses of SHK for 48 h, and then collected for the Co-IP assay.

GST-NEMO (1–196) [1] = target: T3, GST-NEMO (1–196) (Homo sapiens, UniProt Q9Y6K9); assay: MST binding assay to NEMO
T3 construct: assays using MBP-IKKβ (701–745) and GST-NEMO (1–196) peptides; made in house; host or cells: E. coli BL21(DE3)
T3 sequence (Q9Y6K9 1-196): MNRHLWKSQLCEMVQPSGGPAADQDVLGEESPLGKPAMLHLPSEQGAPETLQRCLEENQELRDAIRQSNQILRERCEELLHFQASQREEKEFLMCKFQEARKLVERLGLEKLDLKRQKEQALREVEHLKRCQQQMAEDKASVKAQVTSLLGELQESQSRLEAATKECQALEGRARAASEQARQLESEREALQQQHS

GST-NEMO (1–196) [2] = target: T3, GST-NEMO (1–196); assay: SPR affinity assay on captured GST-NEMO; type: binding
Method: According to the instructions from GE, an anti-GST antibody was immobilized onto the CM5 chip surface. The sensor surface was activated with NHS and EDC, after which 15 μg/mL of anti-GST antibody was injected for 420 s and the surface was blocked with 1 M ethanolamine, pH 8.5. […] For each analyte, 50 μg/mL of GST-G was captured for 60 s and 10 mM glycine-HCl (pH 2.1) was used to regenerate the surface. MBP-B was analyzed with 120 s injection and 120 s dissociation. A series of SHK concentrations was analyzed with 90 s injection and 90 s dissociation.

[3] = system: NF-κB luciferase activity in LoVo cells; assay: NF-κB dual-luciferase reporter assay; type: cell-based, human; details: 0.5 and 1 µM, 48 h
Method: LoVo cells in a 6-well plate were transfected with the pNFκB-luc plasmid (Beyotime), which contains the luciferase coding region downstream of an NFκB-responsive promoter, using Lipofectamine 2000 Reagent (Invitrogen, Grand Island, NY, USA). After transfection, the cells were treated with SHK (0.5 and 1µM) for 48 h. The dual-luciferase reporter assay system (Promega, Madison, WI) was used to measure the changes of luciferase activity in the cell lysates. The firefly luciferase activities were normalized to the corresponding Renilla luciferase activities. All values are shown as means ± SD of triplicate experiments.

[4] = system: LoVo/IKKβmut (D738A/W739A/W741A) xenograft; assay: LoVo/IKKβmut xenograft mouse model; type: in vivo, athymic nude mice; parameters: dose or concentration left out as unconfirmed
Method: Female athymic nude mice aged 5 weeks were purchased from Beijing Vital River Laboratory Animal Technology Co., Ltd., and kept in the SPF Laboratory Animal Center of Dalian Medical University (Dalian, China). All animals were given free access to sterilized food and water and were habituated for 7 days before the experiments. All procedures were carried out in strict accordance with the recommendations established by the Animal Care and Ethics Committee of Dalian Medical University as well as the guidelines promulgated in the U.S. National Institutes of Health Guide for the Care and Use of Laboratory Animals. LoVo cells (LoVo/wt and LoVo/ mut, 5×10^6 in 100 μL PBS) were injected subcutaneously near the axillary fossa of each nude mouse. Two weeks later, when the formed tumor reached 3-4mm, the animals were divided randomly into three groups with 5 mice in each group. […] The tumors were measured with a caliper once every two days, and the tumor volume was calculated using the formula V = 1/2 (width^2 × length). The body weight of the animals was also recorded. After treatment with SHK for 15 days, all experimental mice were sacrificed and the tumors from each mouse were excised and their weight was measured. […] The stained samples were examined under a Leica DM 4000B fluorescence microscope equipped with a digital camera. […]

[5] = system: COX-2, iNOS, IL-6, TNF-α in LoVo and RKO cells; assay: Expression of inflammatory markers by qPCR and western blotting; type: cell-based, human
Method: Protein lysates were separated by electrophoresis in a 10% acrylamide sodium dodecyl sulfate-polyacrylamide minigel (SDS-PAGE), electrophoretically transferred to a PVDF membrane, and immunoblotted with specific antibodies. The protein bands were detected by enhanced chemiluminescence. The protein concentrations were determined using a BCA protein assay kit (Beyotime Biotechnology, China). The experiments were carried out at least three times.

For `CC(C)=CC[C@@H](O)C1=CC(=O)c2c(O)ccc(O)c2C1=O` [SHK, Shikonin], the colony formation (LoVo and RKO cells) was “colony formation suppression”, the Kd (MBP-IKKβ (701–745); KD for MBP-IKKβ (701–745), SPR) was 8.19 ± 1.92 µM and the Kd (MBP-IKKβ (701–745); approximate summary value in discussion (SPR and MST), read-out: KD for either IKKβ or NEMO alone) was roughly 10 µM. The “association of full-length HA-IKKβ and Flag-NEMO” value (NEMO/IKKβ complex; HEK293T cells) was “greatly reduced”, the “ability to destabilize the NEMO/IKKβ complex” value (NEMO/IKKβ complex; pre-formed complex) was “effectively reversed their association” and the Kd (GST-NEMO (1–196) [1]) was 14.2 ± 1.7 µM. For the same compound, the Kd (GST-NEMO (1–196) [2]) was 8.29 ± 2.38 µM, the NF-κB luciferase activity [3] was “significant inhibition” and the “inhibitory effect on tumor growth in LoVo/IKKβ mutant group compared with LoVo/wt” value [4] was “significantly weakened”. For the same compound, the “expression of inflammatory markers COX-2, iNOS, IL-6, TNF-α” value [5] was “suppressed the expression of inflammatory markers”.

Reference: paper PMC8904520, “Characterization of a small-molecule inhibitor targeting NEMO/IKKβ to suppress colorectal cancer growth” (Signal Transduction and Targeted Therapy, 2022)
